Series [1] deals with Escherichia coli Exonuclease I (Escherichia coli) (UniProt P04995). Kind of series: cell-based or functional assay.
In series [2] the target is ExoI Arg316 Ala variant (Escherichia coli) (UniProt P04995). The series is described as follows: cell-based or functional assay.
Series [3] deals with T1, Exonuclease I/SSB-Ct complex (Escherichia coli, UniProt P04995).
T1 sequence (P04995 whole entry, looked up): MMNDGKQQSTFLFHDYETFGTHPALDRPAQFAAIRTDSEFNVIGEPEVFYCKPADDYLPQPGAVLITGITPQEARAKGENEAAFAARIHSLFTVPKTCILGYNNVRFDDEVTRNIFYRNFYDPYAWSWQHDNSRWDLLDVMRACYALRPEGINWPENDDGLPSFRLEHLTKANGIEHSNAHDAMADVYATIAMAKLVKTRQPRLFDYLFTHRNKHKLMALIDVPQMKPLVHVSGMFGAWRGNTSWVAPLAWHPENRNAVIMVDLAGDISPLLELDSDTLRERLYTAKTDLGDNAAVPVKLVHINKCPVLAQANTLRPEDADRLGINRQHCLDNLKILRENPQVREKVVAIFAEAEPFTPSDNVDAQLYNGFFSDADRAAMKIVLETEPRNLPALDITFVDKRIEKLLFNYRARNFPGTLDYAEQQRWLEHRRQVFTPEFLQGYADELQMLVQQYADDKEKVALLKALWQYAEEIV
The series is described as follows: Fluorescence polarization competition: inhibition of fluorescein-SSB C-terminal peptide binding to Exonuclease I (HTS and Ki determination). Particulars: FIG. 7, unlabeled peptide competition. Here is the method:
(§1) Peptide binding assays were performed in solution, using the peptides from above, and Exonuclease I, in the absence or presence of various compounds. Different amounts of Exonuclease I (ExoI) were used in the peptide binding assays. […] Fluorescence polarization (FP) was measured at 25° C. in triplicate; the average FP value was plotted with standard deviation of the mean shown as error.
(§2) Concentrated Exonuclease I was dialyzed overnight into 2 liters dilution buffer (DB) (20 mM Tris pH 8.0 HCl, 100 mM NaCl, 1 mM MgCl2, and 1 mM Beta-Mercaptoethanol). […] After sitting at room temperature for 5 min, a liquid handling system was used to aliquot this solution into 384 well plates providing 30 microliters/well. One microliter of 1 mM compound was then added. The screened compounds were obtained from the ChemBridge DIVERSet library (ChemBridge Corporation, San Diego, Calif.), from the Maybridge HitFinder library (Thermo Fisher Scientific, Waltham, Mass.), from the ChemDiv library (Chemical Diversity Labs, San Diego, Calif.), or from the Known Bioactive Library—KBA01.
(§3) The FP (fluorescence polarization) values for each well were read using a (plate reader) 5 minutes after compound addition.
(§4) Increasing amounts of compound were titrated into peptide protein mixture until FP values were lowered to values given by only fluorescently labeled peptide alone. Ki values were determined using the Ki calculator for fluorescence-based competitive binding assays of Prof. Shaomeng Wang, University of Michigan (Nikolovska-Coleska et al., 2004, Anal. Biochem. 332: 261-273).

Series [4] has as its target Topoisomerase III (TopoIII)/C-terminal tail of E. coli SSB (Escherichia coli, UniProt P14294). Kind of series: Topoisomerase III peptide binding (fluorescence anisotropy). Particulars: 100 μM final concentration, 1% DMSO. Here is the method: TopoIII was titrated into 10 nM fluorescent peptide, as described above for the ExoI binding assays. The buffer conditions for this binding assay were: 300 mM NaCl, 20 mM Tris pH 8.0, 10% Glycerol, 1 mM BME (Beta-Mercaptoethanol), and 1% DMSO. Concentrations of TopoIII used are given on the graph in FIG. 24. Changes in anisotropy upon binding were read using PanVera Beacon 2000 FP.
Either unlabeled peptide or various compounds were then added to a final concentration of 100 μM. These compounds and unlabeled peptide were dissolved in DMSO and their addition brought the final concentration of DMSO to 1%.
Background: In fluorescence polarisation assays a small probe gives low polarisation when free and higher when bound to something large.

Another series deals with ExoI nuclease activity. Particulars: radiolabeled ssDNA substrate.
In the next series the target is PriA (Escherichia coli, UniProt P17888). Particulars: read-out: Kd, app; SSB-Ct peptide binding by PriA; cited from earlier work.
Chain of PriA (P17888 whole entry): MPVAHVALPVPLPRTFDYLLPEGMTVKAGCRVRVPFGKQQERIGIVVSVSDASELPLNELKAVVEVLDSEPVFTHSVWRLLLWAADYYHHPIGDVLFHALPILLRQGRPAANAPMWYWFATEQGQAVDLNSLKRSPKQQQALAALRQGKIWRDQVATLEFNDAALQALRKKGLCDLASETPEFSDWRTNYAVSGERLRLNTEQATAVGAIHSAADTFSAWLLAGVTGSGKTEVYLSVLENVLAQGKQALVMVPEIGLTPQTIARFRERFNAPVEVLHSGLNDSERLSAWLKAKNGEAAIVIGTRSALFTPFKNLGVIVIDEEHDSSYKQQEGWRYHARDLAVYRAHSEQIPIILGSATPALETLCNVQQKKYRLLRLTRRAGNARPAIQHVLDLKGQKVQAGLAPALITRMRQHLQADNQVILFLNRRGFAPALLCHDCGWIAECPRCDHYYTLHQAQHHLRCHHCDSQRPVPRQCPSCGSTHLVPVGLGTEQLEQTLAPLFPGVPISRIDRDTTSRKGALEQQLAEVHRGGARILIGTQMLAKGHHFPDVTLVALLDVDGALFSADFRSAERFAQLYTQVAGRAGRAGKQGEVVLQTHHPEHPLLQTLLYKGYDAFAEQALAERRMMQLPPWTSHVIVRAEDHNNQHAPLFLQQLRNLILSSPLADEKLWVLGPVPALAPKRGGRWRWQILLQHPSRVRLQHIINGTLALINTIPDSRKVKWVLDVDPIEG
For the next series, the target named is RecQ (Escherichia coli, UniProt P15043). Particulars: read-out: Kd, app; SSB-Ct peptide binding by RecQ; cited from earlier work.
Chain of RecQ (P15043 whole entry): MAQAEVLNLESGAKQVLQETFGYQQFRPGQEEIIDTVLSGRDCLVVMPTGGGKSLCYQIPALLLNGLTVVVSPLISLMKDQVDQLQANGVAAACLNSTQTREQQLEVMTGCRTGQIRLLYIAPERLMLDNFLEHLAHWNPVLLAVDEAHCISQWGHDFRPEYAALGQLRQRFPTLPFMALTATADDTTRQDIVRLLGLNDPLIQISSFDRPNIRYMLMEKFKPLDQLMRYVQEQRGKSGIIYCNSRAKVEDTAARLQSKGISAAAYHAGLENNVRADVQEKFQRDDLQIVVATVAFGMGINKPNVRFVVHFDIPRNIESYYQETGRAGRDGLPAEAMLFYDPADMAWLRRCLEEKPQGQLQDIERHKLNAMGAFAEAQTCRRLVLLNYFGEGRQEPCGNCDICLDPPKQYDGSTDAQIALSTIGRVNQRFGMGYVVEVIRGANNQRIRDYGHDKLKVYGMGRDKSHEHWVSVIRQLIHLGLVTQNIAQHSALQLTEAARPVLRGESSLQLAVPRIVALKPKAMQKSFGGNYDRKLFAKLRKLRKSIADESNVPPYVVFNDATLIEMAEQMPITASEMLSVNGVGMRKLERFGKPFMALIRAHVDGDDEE
For series [5], the target named is Exonuclease I/SSB-Ct complex (Escherichia coli, UniProt P04995). The series is described as follows: Fluorescence polarization competition: inhibition of fluorescein-SSB C-terminal peptide binding to Exonuclease I (HTS and Ki determination). As to the method: as §1, §2, §3, §4
Series [6] relates to E. coli 4213 (imp4213, compromised cell wall). Kind of series: microbe, parasite or virus in culture. Format: cell-based. Particulars: Escherichia coli. Here is the method: The compromised cell wall allows the chemicals to pass through it more readily.
(§5) 100 μL of LB containing E. coli 1655, E. coli 4213, or S. aureus at A ˜0.05 OD 600 was aliquoted in 96 well plates. One μL of compound in DMSO was added to final concentrations given. Plates were incubated at 37° C. with shaking at 250 RPM. Rate of growth was calculated by determining the average change in OD/hour that took place between hours 3 and 7 (log growth phase). The graphs shown herein are plots of this bacterial growth rate (change in OD/h) against inhibitor concentration in μM.

In series [7] the test system is Staphylococcus aureus 12598. The series is described as follows: Bacterial growth assay in LB liquid media, S. aureus. Type of series: cell-based. Particulars: Staphylococcus aureus, 12598. Here is the method: as §5
In the next series the test system is E. coli (imp4213). Kind of series: MIC on solid media, E. coli. Format: cell-based. The settings on record: Escherichia coli, read-out: MIC (E. coli).
Another series has as its system B. subtilis. Kind of series: Growth on solid media (MIC; agar plates with compound), B. subtilis. Type of series: cell-based, Bacillus subtilis. Particulars: Bacillus subtilis. Here is the method: (§6) A number of the tested candidate compounds had profound inhibitory effects on bacterial growth. In addition, it was discovered that the identified drug compounds can slow the growth of a number of other Gram-positive bacterial species. For example, the growth of Bacillus subtilis and Enterococcus faecalis was inhibited when these bacteria were grown on agar plates containing 100 μM of either compound 9 or compound 10.

The subject of the next series is Enterococcus faecalis. The series is described as follows: Growth on agar plates containing compound, Enterococcus faecalis. Type of series: cell-based. Particulars: 100 μM compound in agar. Here is the method:
as §6

Another series concerns Deinococcus radiodurans. The series is described as follows: Growth on agar plates containing compound, Deinococcus radiodurans. Type of series: cell-based. Particulars: tested in a similar manner (100 μM in agar). Here is the method:
as §6

Series [8] deals with HT-29 (human colorectal adenocarcinoma) cells. The series is described as follows: Mammalian cell toxicity, CellTiter-Glo cell viability assay. Format: cell-based. Here is the method:
The toxicity of the identified antimicrobial candidate compounds was tested using human colorectal adenocarcinoma cells in vitro. […] The mammalian cells were tested using a CellTiter-Glo cell viability assay (Promega, Madison, Wis.).
(In general: ATP-based viability assays read luminescence as a measure of living cells.)

In another series the test system is red blood cells. The series is described as follows: In vitro hemolysis. Particulars: for % hemolysis at given concentration: 1 hour. Type of series: cell-based. As to the method:
The identified small molecules were incubated with red blood cells to see what percentage of cells would lyse after 1 hour. Estimated hemolysis data are due to problem with reading absorbance, when the compound absorbs at the same wavelength as heme or if the compound precipitates. In such instances it is difficult to quantitate the absorbance readings; however, visual determination of how many cells have lysed can then be performed, which provides an estimate of cell lysis.

Another series deals with T2, ExoI (Escherichia coli, UniProt P04995).
T2 construct: made in house
Format: binding. The settings on record: FIG. 26A.

The target in a further series is T3, E. coli Exonuclease I (Escherichia coli, UniProt P04995 1-475).
T3 construct: also called ExoI; Exol
T3 sequence: T1 sequence (P04995 whole entry, looked up)
The series is described as follows: fluorescence polarization competition: unlabeled peptide titrated into 1 uM ExoI with 10 nM fluorescein-labeled SSB C-terminal peptide.

In brackets after ≈: the same amount, converted by molar mass. Like-named read-outs stand apart in the source and are kept apart here. Where a SMILES comes first, the peptide text is derived from it. Where no end group is shown, it is not given here.

Chain of Topoisomerase III (TopoIII)/C-terminal tail of E. coli SSB (P14294 whole entry): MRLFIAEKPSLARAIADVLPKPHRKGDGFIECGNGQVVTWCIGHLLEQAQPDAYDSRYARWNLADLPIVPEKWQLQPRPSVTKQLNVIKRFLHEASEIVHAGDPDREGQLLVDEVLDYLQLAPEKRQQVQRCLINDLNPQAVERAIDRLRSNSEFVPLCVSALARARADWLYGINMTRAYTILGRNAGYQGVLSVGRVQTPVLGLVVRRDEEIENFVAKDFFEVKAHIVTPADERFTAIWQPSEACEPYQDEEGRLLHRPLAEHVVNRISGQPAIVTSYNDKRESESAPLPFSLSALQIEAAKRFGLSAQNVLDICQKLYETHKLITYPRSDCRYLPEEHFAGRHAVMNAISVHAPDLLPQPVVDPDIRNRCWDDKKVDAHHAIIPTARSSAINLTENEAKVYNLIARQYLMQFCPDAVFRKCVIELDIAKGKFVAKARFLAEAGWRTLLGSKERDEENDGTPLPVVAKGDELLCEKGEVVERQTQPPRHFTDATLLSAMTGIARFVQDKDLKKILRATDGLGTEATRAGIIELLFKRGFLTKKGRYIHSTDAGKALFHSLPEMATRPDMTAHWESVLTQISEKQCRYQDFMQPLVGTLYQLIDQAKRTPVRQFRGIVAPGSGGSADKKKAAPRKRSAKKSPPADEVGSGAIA

As to “E. coli single-stranded DNA-binding protein (from UniProt P0AGE0 2-178)”, in series [1], the ExoI nuclease activity on radiolabeled ssDNA, stimulation by SSB came out at 4 fold. In series [2], the SSB-stimulated ExoI nuclease activity was below 2 fold.
On to “DDDIPF: unlabeled SSB C-terminal peptide with three residues (MDF) missing from the N-terminus [reference compound]”, for which the “amount needed to titrate away the fluorescent peptide, relative to full-length peptide” value in series [3] is on record as “ten-fold more”.
On to `CC[C@H](C)[C@H](NC(=O)[C@H](CC(=O)O)NC(=O)[C@H](CC(=O)O)NC(=O)[C@H](CC(=O)O)NC(=O)[C@H](Cc1ccccc1)NC(=O)[C@H](CC(=O)O)NC(=O)[C@H](CCSC)NC(=O)[C@@H](N)Cc1c[nH]c2ccccc12)C(=O)N1CCC[C@H]1C(=O)N[C@@H](Cc1ccccc1)C(=O)O` [WT peptide] (H-WMDFDDDIPF-OH; N-terminus assumed), for which the “inhibition of fluorescent peptide binding to TopoIII (anisotropy)” value in series [4] is “did not bring the anisotropy values down to the baseline”. The “SSB stimulation of ExoI nuclease activity” value in the series with ExoI nuclease activity is reported as “no apparent effect”. Besides, the Kd on PriA was 2 µM; on RecQ it was 6 µM.
Turning to `COc1ccc(Nc2cc(C(F)(F)F)ccc2Cl)c(C(=O)O)c1` [Compound 10, 2-[2-chloro-5-(trifluoromethyl)anilino]-5-methoxybenzoic acid], the Ki (in general, a dissociation constant, usually derived from enzyme kinetics or from competition with a known ligand) in series [5] was 0.1 µM; in [5] (Ki estimates, Table 2), 0.35 µM; in series [5] (Ki, compound listing), around 0.125 µM. For the same molecule, the IC50 in series [6] (read-out: IC50 μM inhibitor, inhibition of E. coli growth) was 30 µM; in series [6] (read-out: IC50 E. coli 4213) it was 30 µM; in series [6] (read-out: IC(50) E. coli imp4213), 30 µM; in series [7] (Table 3, reduce growth 50% in liquid media, unit not given (Table 5 gives μM), read-out: IC(50) S. aureus), 20 µM; in series [7] (Table 5, read-out: IC50 μM inhibitor, inhibition of S. aureus growth), 20 µM; in [7] (compound listing, bacterial growth in LB, read-out: IC50 Staphylococcus aureus), 18 µM. In addition, the IC50 is above 100 µM in [8] (HT-29, Table 3, unit inferred, read-out: IC(50) Human cell line) and 60 µM in [8] (HT-29 cells, CellTiter-Glo, read-out: IC50). Further, the MIC (in general, the lowest concentration that inhibits growth of the organism) turned out to be 12.3 µg/mL (≈ 35.6 µM) in the series with E. coli (imp4213) and 11.1 µg/mL (≈ 32.1 µM) in the series with B. subtilis (solid media, B. subtilis). Also, the “growth on agar plates” value with B. subtilis (100 μM compound in agar), in the series with Enterococcus faecalis and in the series with Deinococcus radiodurans was “inhibited” each time. Also, the “% hemolysis at given concentration” value with red blood cells (400 μM) was 0% 400; with red blood cells (800 μM), 85% at 800 μM. This molecule also registered a Hemolysis in the series with red blood cells (Table 3, minimum concentration necessary to lyse red blood cells) of around 800 µM. Further, the “inhibition of fluorescent peptide binding to TopoIII (anisotropy)” value in series [4] is “inhibit binding”.
With WDFMDDPFID [F-mixed], the “ExoI binding to control peptides relative to F-SSB-Ct” value on ExoI is listed as “minimal”.

B1: WT peptide (WMDFDDDIPF, without a fluorescent moiety) (peptide)
peptide: WMDFDDDIPF
notes: also called unlabeled peptide; SSB-Ct peptide
B1 came in with a Ki with E. coli Exonuclease I of 0.053 µM.
